Assay [1] concerns Col17A1. As to the kind of experiment: Induction of COL17A1 expression in HaCat cells (Western blotting). The class given is cell-based, human. As to conditions: 48 hours. How it is done: HaCat cells (human epidermal keratinocyte strain) were seeded in 10% FBS-containing D-MEM medium in a 6-well plate at 1×10^5 cells per well, and apocynin was added to be 1-60 μM. After 48 hours of culturing, an anti-Col17A1 antibody was used as the primary antibody, and Western blotting was carried out. An anti-GAPDH antibody was used as the internal control. The 180 KDa band of Col17A1 and the internal control GAPDH band were quantified for their densities using an LAS-3000 luminescence image analyzer. […] HaCat cells (human epidermal keratinocyte strain) were seeded in 10% FBS-containing D-MEM medium in a 6-well plate at 1×10^5 cells per well, and ascorbic acid (Wako Pure Chemical Industries, Ltd.) was added to be 0.3-60 jag/ml. After 48 hours of culturing, an anti-Col17A1 antibody was used as the primary antibody, and Western blotting was carried out. An anti-β-tubulin antibody was used as the internal control. The 180 KDa band of Col17A1 and the internal control β-tubulin band were quantified for their densities using an LAS-3000 luminescence image analyzer. […] HaCat cells (human epidermal keratinocyte strain) were seeded in 10% FBS-containing D-MEM medium in a 6-well plate at 1×10^5 cells per well, and Marimastat (MMP inhibitor) was added to be 3 μM. After 48 hours of culturing, an anti-Col17A1 antibody was used as the primary antibody, and Western blotting was carried out. An anti-β-tubulin antibody was used as the internal control. The 180 KDa band of Col17A1 and the internal control β-tubulin band were quantified for their densities using an LAS-3000 luminescence image analyzer.

Assay [2] has as its system irradiated mice. The assay is described as follows: Test of intradermal administration in irradiated mice. The format is in vivo, mouse. As to conditions: 7-week-old male C57BL/6NCrSlc mice, 5 Gy, 5 mg/ml in DMSO 200 μl (1000 μg) intradermally once a day, 5 times. As to the method:
The hair on the lower back of 7-week-old male C57BL/6NCrSlc mice was removed. Sivelestat was dissolved in DMSO to be 5 mg/ml and 200 μl (=1000 μg) thereof was administered intradermally on back of the sivelestat group mice. On the back of the control group mice, 200 μl of DMSO was administered intradermally. After intradermal administration, the skin of the two groups of mice (day 0) was irradiated with a low voltage radiation of 5 Gy using CABINET X-RAY SYSTEM (Faxitron X-ray corporation). Up to day 4, the same medicinal agents described above were intradermally administered on the back once a day (for a total of 5 times), and weekly follow-ups were carried out after that.

Assay [3] deals with irradiated mice. The assay is described as follows: Application test on the back of irradiated mice. The format is in vivo, mouse. The note with it: 7-week-old male C57BL/6NCrSlc mice, 5 Gy, 10 mg/ml in DMSO 125 μl applied on the back once a day, 5 times. As to the method:
The hair on the lower back of 7-week-old male C57BL/6NCrSlc mice was removed. Sivelestat was dissolved in DMSO to be 10 mg/ml and 125 μl (=[…]) thereof was applied on the back of the sivelestat group mice. On the back of the control group mice, 125 μl of DMSO was applied. After application on the back, the skin of the two groups of mice (day 0) was irradiated with a low voltage radiation of 5 Gy using CABINET X-RAY SYSTEM (Faxitron X-ray Corporation). Up to day 4, the same medicinal agents described above were applied on the back once a day (for a total of 5 times), and weekly follow-ups were carried out after that.

Assay [4] deals with aged mice. The assay is described as follows: Comparison of the hair-increasing effects of apocynin and minoxidil in aged mice. The format is in vivo, mouse. As to conditions: 17-month-old female C57BL/6NCrSIc mice, 100 μl of 200 μM solution applied for 28 days, day 14; comparator Ri-UP X5 PLUS (minoxidil 5 g/100 ml). As to the method: Apocynin (A727200; Tront Research Chemicals) was adjusted to the concentration of 20 mM with DMSO, and 200 LM apocynin solution (1% apocynin 20 mM, 49% water, 50% ethanol) was prepared as the solution to be applied on mice. As the control solution, 1% DMSO (Sigma Aldrich), 49% water, 50% ethanol was prepared. For the minoxidil solution, Ri-UP X5 PLUS® (5 g/100 ml, Taisho Pharmaceutical Co., Ltd.) was used. After six 17-month-old female C57BL/6[…] mice were anesthetized by inhalation of isoflurane (Pfizer), the hair on the back of the neck was removed. The three mice in the minoxidil treatment group were applied with 100 μl of minoxidil, and the apocynin treatment group with 100 μl of the 200 μM apocynin solution for 28 days. For the follow-ups, photo images of the representative first day (day 1) and the last day (day 28) are shown (FIG. 12).

Assay [5] deals with aged mice. As to the kind of experiment: Hair-increasing effect in aged mice (application on the back of the neck). The format is in vivo, mouse. The note with it: 26-27-month-old female C57BL/6NCrSlc mice, 100 μl of 200 μM solution applied for 28 days, day 28. How it is done: Apocynin (A727200; Tront Research Chemicals) was adjusted to the concentration of 20 mM with DMSO, and 200 LM apocynin solution (1% apocynin 20 mM, 49% water, 50% ethanol) was prepared as the solution to be applied on mice. As the control solution, 1% DMSO (Sigma Aldrich), 49% water, 50% ethanol was prepared. After an anesthetic procedure was performed on five 27-month-old and one 26-month-old female C57BL/6[…] mice, hair on the back of the neck was removed. The three mice in the control solution treatment group were applied with 100 μl of the control solution, and the apocynin solution treatment group with 100 μl of the 200 μM apocynin solution for 28 days. For the follow-ups, photo images of the representative first day (day 1) and the last day (day 28) are shown (FIG. 11).

For the compound `CNC(=O)[C@@H](NC(=O)[C@H](CC(C)C)[C@H](O)C(=O)NO)C(C)(C)C` [Marimastat], in assay [1] (Marimastat 3 μM, β-tubulin internal control), the “Col17A1 expression (180 KDa band, Western blotting)” value (“Col17A1 expression” for short) is “increase of Col17A1 was observed”.

As for `CC(C)(C)C(=O)Oc1ccc(S(=O)(=O)Nc2ccccc2C(=O)NCC(=O)[O-])cc1.O.O.O.O.[Na+]` [Sivelestat, Monosodium N-{2-[4-(2,2-dimethylpropanoyloxy)-phenylsulfonylamino]benzoyl}aminoacetate tetrahydrate], the “hair growth versus control group” value is recorded as “tendency to grow more” in assay [2] and “tendency to grow faster” in assay [3]. Further, the graying result was “suppression of graying was seen” in assay [2] (14 weeks and 28 weeks); “suppression of graying was seen” in assay [3] (14 weeks and 28 weeks).

As to `COc1cc(C(C)=O)ccc1O` [apocynin], the “Col17A1 expression” value in assay [1] (apocynin 1-60 μM, GAPDH internal control) was “increase of Col17A1 was observed along with the increase of apocynin”. The “hair growth effect versus minoxidil” value in assay [4] is on record as “significant hair growth effect compared to the minoxidil-administered group”. Besides, the “hair growth effect versus control solution” value in assay [5] is listed as “significant hair growth effect compared to the control group”.

Turning to `O=C1O[C@H]([C@@H](O)CO)C(O)=C1O` [ascorbic acid], in assay [1] (ascorbic acid 0.3-60 jag/ml, β-tubulin internal control), the “Col17A1 expression” value is “increase of Col17A1 was observed along with the increase of ascorbic acid”.
